Measured values: patent US7598286B2, “[(1H-indazol-3-yl)methyl]phenols and (hydroxyphenyl)(1H-indazol-3-yl)methanones” (Wyeth, priority 2004, dated 2009)
Like-named read-outs stand apart in the source and are kept apart here.

Key:
[1] = tested on: NF-κB luciferase reporter in Ad5-wt-hERα infected HAECT-1 cells; assay: ER/NF-κB-luc: IL-1β induced NF-κB luciferase reporter in Ad5-wt-ER infected HAECT-1 cells; type: cell-based; settings: Homo sapiens; for IC50: HAECT1, Ad5-wt-ER infected HAECT-1 cells, IL-1β, read-out: ER/NF-KB-luc IC50; for Emax: HAECT1, efficacy relative to the maximal inhibition observed with E2, read-out: ER/NF-KB-luc % Eff*
Method: (§1) T-175 flasks of 100% confluent HAECT-1 cells (immortalized human aortic endothelial cells) were washed with 8 ml of HBSS (HEPES buffered saline solution) and infected for four hours with 6 ml of a 1:10 dilution of Ad5-wt-hERα virus (an adenovirus transfection vector that mediates CMV promoter driven expression of human ERα) in phenol red free Endothelial Cell Basal medium (Clonetics, San Diego Calif., Catalog # CC-3129) containing 0.25% bovine serum albumin (EBM-BSA). After four hours, cells were washed with EBM-BSA and incubated overnight in the same medium. Following overnight incubation, cells were washed with EBM-BSA and infected for 2 hours with 6 ml of a 1:10 dilution of Ad5-3×(NFκB).Luc virus (Adenovirus luciferase expression vector driven by 3 repeats of the MHC NFκb site 5′ to the thymidine kinase promoter) in EBM-BSA. After two hours, cells were washed and incubated at 34° C. for 1 hour. Cells were then washed, trypsinized, counted and resuspended in 95% FBS/5% dimethylsulfoxide at a concentration of 4×10^6 cells/ml, frozen as 1 or 5 ml aliquots in cryo-vials and stored at −150° C. Control (no ER infection) cells were processed as above without Ad5-wt-hERα virus infection.
(§2) ERα infected HAECT-1 cells or control cells were thawed, diluted 42× in warm EBM-BSA, plated into 96-well plates at 0.1 ml/well and incubated for 4 h at 34° C. Test compounds were added to the cells as 2× stocks in EBM-BSA containing 2 ng/ml IL-1β (R&D Systems) and plates were returned to the incubator (34° C.). After 15-20 h, 100 μl aliquots of media were removed from the cells and assayed for IL-6 content using a BioSource human IL-6 ELISA Kit. Cells were subsequently washed with 300 μl of Dulbecco's phosphate buffered saline and lysed in 50 μl of Cell Culture Lysis Reagent (Promega). Luciferase was determined on a Wallac Victor^2 Luminometer (Gaithersburg, Md.) using 10 μl of lysate and mixing with 100 μl of Promega Luciferase Assay reagent. Creatine kinase was determined from the rate of increase in A340 following addition of 100 μl of CK assay reagent (Sigma, cat. No 47-10) to the remainder of the cell lysate.
(§3) For IC50 and EC50 calculations, mean IL-6, luciferase or CK values versus log10 of the compound concentration were fitted to a four parameter logistic equation. The IC50/EC50 value, ‘Hill slope’, upper and lower limits of the curve were iteratively estimated.

[2] = tested on: creatine kinase expression in Ad5-wt-hERα infected HAECT-1 cells; assay: ER/CK: creatine kinase expression in Ad5-wt-ER infected HAECT-1 cells; type: cell-based, human; settings: for EC50: Homo sapiens; for ER/CK % Eff*: efficacy relative to the maximal stimulation observed with E2
Method: as §1, §2, §3

[3] = tested on: IL-6 expression in Ad5-wt-hERα infected HAECT-1 cells; assay: ER/IL-6: IL-6 expression (ELISA) in Ad5-wt-ER infected HAECT-1 cells; type: cell-based, human; settings: for IC50: IL-1β; for ER/IL-6 % Eff: efficacy relative to the maximal inhibition observed with E2
Method: as §1, §2, §3

RANTES mRNA = assay: NF-κB target gene expression in liver of mice fed a high fat diet: RANTES; type: in vivo, C57BL/6 mice; settings: 10 mg/kg
Method: (§4) Ovariectomized C57BL/6 mice (16-20 g) (Taconic) were separated into groups of 8. After 5-7 days of recuperation, the mice were fed a chow diet or an atherogenic diet (15.75% fat, 1.25% cholesterol and 0.5% sodium cholate) (Purina diet #21539). EE or test compound was administered once daily by gavage in a methylcellulose/tween vehicle (0.1 ml per mouse) for 5 weeks. At the end of the experimental period, the liver was collected and uterine wet weight was recorded.
(§5) Liver total RNA was prepared by using Trizol reagent (BRL). Estrogen and compound regulation of NF-κB target genes were verified by real time RT-PCR using an ABI PRISM 7700 Sequence Detection System according to the manufacturer's protocol (Applied Biosystems). The data was analyzed using the Sequence Detector v1.7 software (Applied Biosystems) and normalized to GAPDH using the Applied Biosystems primer set.
(§6) To determine the ability of estrogens to regulate the development of diet-induced inflammation in the liver, gene expression changes resulting from the atherogenic diet were monitored. Ovariectomized C57BL/6 mice were fed either a chow or atherogenic diet and treated daily with EE (0.01 mg/kg) or test compound (Table 2).

VCAM-1 mRNA = assay: NF-κB target gene expression in liver of mice fed a high fat diet: VCAM-1; type: in vivo, C57BL/6 mice; settings: 10 mg/kg
Method: as §4, §5, §6

TNF-α mRNA = assay: NF-κB target gene expression in liver of mice fed a high fat diet: TNFa; type: in vivo, C57BL/6 mice; settings: 10 mg/kg
Method: as §4, §5, §6

MHC invariant chain mRNA = assay: NF-κB target gene expression in liver of mice fed a high fat diet: MHC; type: in vivo, C57BL/6 mice; settings: 10 mg/kg
Method: as §4, §5, §6

[4] = HAECT1, read-out: ER/CK EC50 (nM)
[5] = Homo sapiens, HAECT1, Ad5-wt-ER infected HAECT-1 cells
[6] = once daily by gavage, 5 weeks, ovariectomized mice on atherogenic diet, liver RT-PCR
[7] = Ad5-wt-ER infected HAECT-1 cells

SMILES | melting point [°C] | IC50 [1] [nM] | Emax [1] [%] | ER/CK EC50 (nM) [2, 7] | further results
C/C=C/Cn1nc(C(=O)c2cccc(O)c2)c2ccccc21 | 75 to 78 | – | – | – | –
CC(C)=CCn1nc(C(=O)c2cccc(O)c2)c2ccccc21 | 92 to 94 | – | – | – | –
Oc1cccc(Cc2n[nH]c3ccccc23)c1 [Example 1, 3-[(1H-indazol-3-yl)methyl]phenol] | 170 to 172 | – | – | – | –
CCCn1nc(C(=O)c2cccc(O)c2)c2ccccc21 [Example 3, (3-hydroxyphenyl)(1-propyl-1H-indazol-3-yl)methanone] | – | 722 | 70 | – | EC50 [2, 4]: 2640 nM; ER/CK % Eff* [2]: 35%
O=C(c1cccc(O)c1)c1nn(C2CCCC2)c2ccccc12 [Example 4, (1-cyclopentyl-1H-indazol-3-yl)(3-hydroxyphenyl)methanone] | – | 170 | 77 | – | IC50 [3, 5]: 66 nM; ER/IL-6 % Eff [3]: 109%; EC50 [2, 4]: 1330 nM; ER/CK % Eff* [2]: 57%; RANTES % inhib (RANTES mRNA; [6]): 67%; RANTES (eff %) (RANTES mRNA; value in parentheses): 151%; VCAM-1 % inhib (VCAM-1 mRNA; [6]): 59%; VCAM-1 (eff %) (VCAM-1 mRNA; value in parentheses): 100%; TNFa % inhib (TNF-α mRNA; [6]): 45%; TNFa (eff %) (TNF-α mRNA; value in parentheses): 100%; MHC % inhib (MHC invariant chain mRNA; [6]): 60%; MHC (eff %) (MHC invariant chain mRNA; value in parentheses): 138%
CC(C)n1nc(C(=O)c2cccc(O)c2)c2ccccc21 [Example 5, (3-hydroxyphenyl)(1-isopropyl-1H-indazol-3-yl)methanone] | – | 1070 | 83 | – | EC50 [2, 4]: 1790 nM; ER/CK % Eff* [2]: 55%
Oc1cccc(Cc2nn(C3CCCC3)c3ccccc23)c1 [Example 6, 3-[(1-cyclopentyl-1H-indazol-3-yl)methyl]phenol] | – | 570 | 54 | ia | –
O=C(c1ccc(O)cc1)c1n[nH]c2c(C(F)(F)F)cccc12 [Example 7, (4-hydroxyphenyl)[7-(trifluoromethyl)-1H-indazol-3-yl]methanone] | – | 1000 | 43 | ia | –
O=C(c1ccc(O)cc1)c1nn(C2CCCC2)c2c(C(F)(F)F)cccc12 [Example 8, [1-cyclopentyl-7-(trifluoromethyl)-1H-indazol-3-yl](4-hydroxyphenyl)methanone] | 225 to 226 | 94 | 87 | ia | –
CC(C)n1nc(C(=O)c2ccc(O)cc2)c2cccc(C(F)(F)F)c21 [Example 9, (4-hydroxyphenyl)[1-isopropyl-7-(trifluoromethyl)-1H-indazol-3-yl]methanone] | – | 107 | 80 | ia | –
O=C(c1cccc(O)c1)c1n[nH]c2c(C(F)(F)F)cccc12 [Example 10, (3-hydroxyphenyl)[7-(trifluoromethyl)-1H-indazol-3-yl]methanone] | – | 593 | 88 | ia | –
CCCn1nc(C(=O)c2cccc(O)c2)c2cccc(C(F)(F)F)c21 [Example 11, (3-hydroxyphenyl)[1-propyl-7-(trifluoromethyl)-1H-indazol-3-yl]methanone] | 118 | 198 | 82 | ia | –
O=C(c1cccc(O)c1)c1nn(C2CCCC2)c2c(C(F)(F)F)cccc12 [Example 12, [1-cyclopentyl-7-(trifluoromethyl)-1H-indazol-3-yl](3-hydroxyphenyl)methanone] | 152 | 54 | 73 | – | EC50 [2, 4]: 139 nM; ER/CK % Eff* [2]: 32%
CC(C)n1nc(C(=O)c2cccc(O)c2)c2cccc(C(F)(F)F)c21 [Example 13, (3-hydroxyphenyl)[1-isopropyl-7-(trifluoromethyl)-1H-indazol-3-yl]methanone] | 145 | 63 | 85 | ia | –
C=C(C)Cn1nc(C(=O)c2cccc(O)c2)c2ccccc21 [Example 14, (3-hydroxyphenyl)[1-(2-methylprop-2-enyl)-1H-indazol-3-yl]methanone] | 75 to 78 | 388 | 103 | ia | –
CC(C)Cn1nc(C(=O)c2cccc(O)c2)c2ccccc21 [Example 17, (3-hydroxyphenyl)(1-isobutyl-1H-indazol-3-yl)methanone] | 108 to 110 | 710 | 100 | – | EC50 [2, 4]: 1570 nM; ER/CK % Eff* [2]: 51%
C=CCn1nc(C(=O)c2cccc(O)c2)c2ccccc21 [Example 18, (1-allyl-1H-indazol-3-yl)(3-hydroxyphenyl)methanone] | – | 1240 | 92 | ia | –
O=C(c1cccc(O)c1)c1nn(Cc2ccccc2)c2ccccc12 [Example 19, (1-benzyl-1H-indazol-3-yl)(3-hydroxyphenyl)methanone] | – | 409 | 92 | ia | –
O=C(c1cccc(O)c1)c1nn(C2C=CCCC2)c2ccccc12 (centres unmarked) [Example 20, (1-cyclohex-2-en-1-yl-1H-indazol-3-yl)(3-hydroxyphenyl)methanone] | 140 to 141 | 155 | 87 | ia | –
COc1cccc(-n2nc(C(=O)c3cccc(O)c3)c3ccccc32)c1 [Example 22, (3-hydroxyphenyl)[1-(3-methoxyphenyl)-1H-indazol-3-yl]methanone] | – | 475 | 75 | ia | –
O=C(c1cccc(O)c1)c1c2ccccc2nn1-c1ccc(Br)cc1 [Example 23, [2-(4-bromophenyl)-2H-indazol-3-yl](3-hydroxyphenyl)methanone] | – | 82 | 79 | ia | –
C[C@]12CC[C@@H]3c4ccc(O)cc4CC[C@H]3[C@@H]1CC[C@@H]2O [Example E2, 17β-estradiol, reference compound] | – | ~1 | 100 | – | IC50 [3, 7]: 1.7 nM; IC50 [3, 5]: ~1 nM; ER/IL-6 % Eff [3]: 100%; EC50 ([2]; HAECT1, Ad5-wt-ER infected HAECT-1 cells, read-out: ER/CK EC50): 5.8 nM; ER/CK % Eff* [2]: 100%
